Experimental data reported in US6992111B2, “Fungicide” (Valent BioSciences Corporation, priority 2003, dated 2006).

Assays:
Botrytis cinerea [1] = experiment: Detached bean leaf bioassay, fungal control; type: in vivo; conditions: 200 ppm on detached bean leaf; 100 minus percent necrotic area, three days after inoculation
Experimental: Detached Bean Leaf Bioassay
Compound solution: Compound solutions were prepared by diluting compound stock solutions (1.0% w/v compound in DMSO) to 200 ppm with 0.01% w/v Triton X-100.
Spore solution preparation: Botrytis cinerea spores were taken from 6-week-old cultures grown at 22 C on full strength potato dextrous agar (PDA) plates and harvested in 1:16 frozen orange juice concentrate:water. Botrytis cinerea spore solutions were prepared by diluting spore cultures to 5×10^4 spores/mL with 1:16 frozen orange juice concentrate:water.
Plant material: Middle trifoliate leaves of greenhouse grown Phaseolus vulgaris (Bush bean cv. Blue Lake 274) were excised and placed on a plastic grid above a tray containing moist towels.
Treatment method: One half of the adaxial surface of the leaf was treated with the compound solution (100:L) using a 3 cm Bacti Cell Spreader. A blank consisted of 0.01% w/v Triton X-100. A commercial fungicide control (200 ppm diluted with water) consisted of Scala. After the solutions dried, the trays containing the leaves were covered and held one day in a growth chamber (22 C). The adaxial surfaces of the leaves were then inoculated with 5–60:L droplets of Botrytis cinerea spore solution.
Fungal control rating: Three days after inoculation with Botrytis, the percent necrotic area under the inoculation droplet was determined. Since the areas under the blank (0.01% w/v Triton X-100) were 100% infected, fungal control was expressed as 100 minus the percent necrotic area, and thus 0% infected is 100% fungal control (n=3 leaves/compound, 5 inoculation droplets/leaf, Table 2).

[2] = tested on: Phaseolus vulgaris (Bush bean cv. Blue Lake 274) leaves; experiment: Detached bean leaf bioassay, phytotoxicity rating; type: in vivo
Experimental: Detached Bean Leaf Bioassay Compound solution: Compound solutions were prepared by diluting compound stock solutions (1.0% w/v compound in DMSO) to 200 ppm with 0.01% w/v Triton X-100. Plant material: Middle trifoliate leaves of greenhouse grown Phaseolus vulgaris (Bush bean cv. Blue Lake 274) were excised and placed on a plastic grid above a tray containing moist towels. Treatment method: One half of the adaxial surface of the leaf was treated with the compound solution (100:L) using a 3 cm Bacti Cell Spreader. A blank consisted of 0.01% w/v Triton X-100. A commercial fungicide control (200 ppm diluted with water) consisted of Scala. After the solutions dried, the trays containing the leaves were covered and held one day in a growth chamber (22 C). The adaxial surfaces of the leaves were then inoculated with 5–60:L droplets of Botrytis cinerea spore solution. Phytotoxicity ratings: Phytotoxicity was rated as 0=no phytotoxicity, 1=slight phytotoxicity, 2=moderate phytotoxicity, or 3=excessive phytotoxicity (Table 2).

Monilinia laxa = experiment: Contact evaluation (microtiter plate fungal growth); type: cell-based
Experimental: (§1) Compound solution: Contact evaluations were conducted to determine the anti-fungal activity of each compound against Botrytis cinerea, Sclerotinia sclerotiorum, Pythium aphanidermatum, Rhizoctonia solani, Cercospora arachidicola, Mycosphaerella fijiensis, and Monilinia laxa. Five milligrams of each compound were dissolved in 0.5 milliliter of DMSO for a compound stock solution of 1.0% w/v. Compound stock solutions were serial diluted with DMSO to 20, 10, and 2 ppm final well concentration.
(§2) Fungi preparation: Botrytis cinerea spores were taken from 6-week-old cultures grown at 22 C on full strength potato dextrous agar (PDA) plates. Sclerotinia sclerotiorum, Pythium aphanidermatum, Rhizoctonia solani, and Monilinia laxa mycelia were taken from 4- to 10-day-old shake flask cultures grown at room temperature on full strength potato dextrous broth (PDB). Cercospora arachidicola mycelia were taken from 10- to 14-day-old shake flask cultures grown at room temperature on a full strength PDB amended with peanut oil. Mycosphaerella fijiensis mycelia were taken from 10- to 14-day-old shake flask cultures grown at room temperature on V8 juice broth. Sclerotinia sclerotiorum, Pythium aphanidermatum, Rhizoctonia solani, Cercospora arachidicola, and Mycosphaerella fijiensis mycelia (0.4 g mycelia) were blended for 45 seconds in 20 mL sterile de-ionized water. Monilinia laxa mycelia (1 g mycelia) was blended for 45 seconds in 30 mL of sterile de-ionized water. Botrytis cinerea spores were diluted with quarter strength PDB to 1×10^5 spores/mL final well concentration. All mycelia were diluted in water (1:5 mycelia:water) before distributing into the wells.
(§3) Microtiter plate preparation: Compound solution (10:L), quarter strength PDB (900:L) and fungi preparation (100:L) were sequentially distributed into 48-well microtiter plates (n=3 replications/compound/rate). A blank consisted of quarter strength PDB and fungi preparation. Commercial fungicide controls (100 ppm diluted with water) consisted of Scala for Botrytis cinerea, Dithane F-45 for Mycosphaerella fijiensis, and Benlate for Sclerotinia sclerotiorum, Pythium aphanidermatum, Rhizoctonia solani, Cercospora arachidicola, and Monilinia laxa. Plates were shaken in a circular rotator at room temperature for 20 minutes, then incubated at 25C for 24 to 72 hours, depending on the pathogen.
(§4) Fungal control ratings: Fungal growth in wells containing the compounds were compared to the positive control and fungal inhibition was rated as full, partial, or none. Final readings were the average of the three wells (Table 1).

Botrytis cinerea [3] = experiment: as above; type: cell-based
Experimental: as §1, §2, §3, §4

Mycosphaerella fijiensis = experiment: as above; type: cell-based
Experimental: as §1, §2, §3, §4

Cercospora arachidicola = experiment: as above; type: cell-based
Experimental: as §1, §2, §3, §4

Rhizoctonia solani = experiment: as above; type: cell-based; conditions: Rhizoctinia solani
Experimental: as §1, §2, §3, §4

Pythium aphanidermatum = experiment: as above; type: cell-based
Experimental: as §1, §2, §3, §4

Sclerotinia sclerotiorum = experiment: as above; type: cell-based; conditions: Sclerotinia sclerotionum
Experimental: Contact Evaluation. Compound solution: Contact evaluations were conducted to determine the anti-fungal activity of each compound against Botrytis cinerea, Sclerotinia sclerotiorum, Pythium aphanidermatum, Rhizoctonia solani, Cercospora arachidicola, Mycosphaerella fijiensis, and Monilinia laxa. Five milligrams of each compound were dissolved in 0.5 milliliter of DMSO for a compound stock solution of 1.0% w/v. Compound stock solutions were serial diluted with DMSO to 20, 10, and 2 ppm final well concentration. Fungi preparation: Botrytis cinerea spores were taken from 6-week-old cultures grown at 22 C on full strength potato dextrous agar (PDA) plates. Sclerotinia sclerotiorum, Pythium aphanidermatum, Rhizoctonia solani, and Monilinia laxa mycelia were taken from 4- to 10-day-old shake flask cultures grown at room temperature on full strength potato dextrous broth (PDB). Cercospora arachidicola mycelia were taken from 10- to 14-day-old shake flask cultures grown at room temperature on a full strength PDB amended with peanut oil. Mycosphaerella fijiensis mycelia were taken from 10- to 14-day-old shake flask cultures grown at room temperature on V8 juice broth. Sclerotinia sclerotiorum, Pythium aphanidermatum, Rhizoctonia solani, Cercospora arachidicola, and Mycosphaerella fijiensis mycelia (0.4 g mycelia) were blended for 45 seconds in 20 mL sterile de-ionized water. Monilinia laxa mycelia (1 g mycelia) was blended for 45 seconds in 30 mL of sterile de-ionized water. Botrytis cinerea spores were diluted with quarter strength PDB to 1×10^5 spores/mL final well concentration. All mycelia were diluted in water (1:5 mycelia:water) before distributing into the wells. Microtiter plate preparation: Compound solution (10:L), quarter strength PDB (900:L) and fungi preparation (100:L) were sequentially distributed into 48-well microtiter plates (n=3 replications/compound/rate). A blank consisted of quarter strength PDB and fungi preparation. Commercial fungicide controls (100 ppm diluted with water) consisted of Scala for Botrytis cinerea, Dithane F-45 for Mycosphaerella fijiensis, and Benlate for Sclerotinia sclerotiorum, Pythium aphanidermatum, Rhizoctonia solani, Cercospora arachidicola, and Monilinia laxa. Plates were shaken in a circular rotator at room temperature for 20 minutes, then incubated at 25C for 24 to 72 hours, depending on the pathogen. Fungal control ratings: Fungal growth in wells containing the compounds were compared to the positive control and fungal inhibition was rated as full, partial, or none. Final readings were the average of the three wells (Table 1).

Compound	Botrytis cinerea control (200 ppm) (Botrytis cinerea [1]) [%]	Phytotoxity (200 ppm) [2]	Control of fungi (full, partial, none) (Monilinia laxa; fungicide rate 2 ppm)	Control of fungi (full, partial, none) (Monilinia laxa; fungicide rate 10 ppm)	Control of fungi (full, partial, none) (Monilinia laxa; fungicide rate 20 ppm)	Control of fungi (full, partial, none) (Botrytis cinerea [3]; fungicide rate 2 ppm)	Control of fungi (full, partial, none) (Botrytis cinerea [3]; fungicide rate 10 ppm)	Control of fungi (full, partial, none) (Botrytis cinerea [3]; fungicide rate 20 ppm)	Control of fungi (full, partial, none) (Mycosphaerella fijiensis; fungicide rate 2 ppm)	Control of fungi (full, partial, none) (Mycosphaerella fijiensis; fungicide rate 10 ppm)	Control of fungi (full, partial, none) (Mycosphaerella fijiensis; fungicide rate 20 ppm)	Control of fungi (full, partial, none) (Cercospora arachidicola; fungicide rate 2 ppm)	Control of fungi (full, partial, none) (Cercospora arachidicola; fungicide rate 10 ppm)	Control of fungi (full, partial, none) (Cercospora arachidicola; fungicide rate 20 ppm)	Control of fungi (full, partial, none) (Rhizoctonia solani; fungicide rate 2 ppm)	Control of fungi (full, partial, none) (Rhizoctonia solani; fungicide rate 10 ppm)	Control of fungi (full, partial, none) (Rhizoctonia solani; fungicide rate 20 ppm)	Control of fungi (full, partial, none) (Pythium aphanidermatum; fungicide rate 2 ppm)	Control of fungi (full, partial, none) (Pythium aphanidermatum; fungicide rate 10 ppm)	Control of fungi (full, partial, none) (Pythium aphanidermatum; fungicide rate 20 ppm)	other results
O=[N+]([O-])c1ccc(O)c(-c2ccc(C(F)(F)F)cc2)c1 [X = CF3]	100	Moderate	Full	Full	Full	Full	Full	Full	Full	Full	Full	Full	Full	Full	Partial	Full	Full	Full	Full	Full	Control of fungi (full, partial, none) (Sclerotinia sclerotiorum; fungicide rate 2 ppm): Full; Control of fungi (full, partial, none) (Sclerotinia sclerotiorum; fungicide rate 10 ppm): Full; Control of fungi (full, partial, none) (Sclerotinia sclerotiorum; fungicide rate 20 ppm): Full
O=[N+]([O-])c1ccc(O)c(-c2ccc(Cl)cc2)c1 [X = Cl]	97	Moderate	Full	Full	Full	Full	Full	Full	Full	Full	Full	Full	Full	Full	Full	Full	Full	Full	Full	Full	Control of fungi (full, partial, none) (Sclerotinia sclerotiorum; fungicide rate 2 ppm): Full; Control of fungi (full, partial, none) (Sclerotinia sclerotiorum; fungicide rate 10 ppm): Full; Control of fungi (full, partial, none) (Sclerotinia sclerotiorum; fungicide rate 20 ppm): Full
O=[N+]([O-])c1ccc(O)c(-c2ccc(F)cc2)c1 [X = F]	31	None	Partial	Full	Full	Partial	Full	Full	Full	Full	Full	Full	Full	Full	None	Full	Full	Partial	Full	Full	Control of fungi (full, partial, none) (Sclerotinia sclerotiorum; fungicide rate 2 ppm): Full; Control of fungi (full, partial, none) (Sclerotinia sclerotiorum; fungicide rate 10 ppm): Full; Control of fungi (full, partial, none) (Sclerotinia sclerotiorum; fungicide rate 20 ppm): Full
